From ChEMBL document CHEMBL2417420, “Autotaxin inhibition: development and application of computational tools to identify site-selective lead compounds” (Bioorg Med Chem, 2013)

The compounds below were run against Autotaxin (Homo sapiens, UniProt Q13822) (assay: Inhibition of C-terminal FLAG-tagged human recombinant autotaxin using synthetic substrate FS-3 at 10 uM measured every 2 mins by FRET assay relative to control).

SMILES	inhibition [%]
Cc1ccc(C)c(N2CCN(C3CN(C(=O)NCCc4ccccc4)CC3O)CC2)c1 (stereo not drawn)	10
CC(C)Cc1ccc(C(C)C(=O)N2CCN(c3ncccc3C(=O)NC(C(N)=O)C(C)O)CC2)cc1 (stereo not drawn)	20
COc1cc(C2CC(=O)NC(SCC(=O)Nc3ccccc3C)=C2C#N)cc(Br)c1O (stereo not drawn)	30
COc1cc(CCNC(=O)c2ccc3c(c2)nc(-c2cc(OC)c(OC)c(OC)c2)n3CCc2ccc(OC)c(OC)c2)cc(OC)c1	30
CCc1cc2c(cc3c(=O)n(CCCC(=O)NCc4ccc(OC(C)C)cc4)ncn32)s1	20
COc1ccc(CCNC(=O)c2ccc3c(c2)nc(-c2cc(OC)c(OC)c(OC)c2)n3CCc2ccc(OC)c(OC)c2)cc1OC	30
CCCCOc1ccc(-c2nc3cc(C(=O)NCc4cc(F)ccc4F)ccc3n2CCc2ccc(OC)c(OC)c2)cc1	30
COc1cccc(CNS(=O)(=O)c2ccc3c(c2)NC(=O)C(C)N3C(=O)CN2CCN(c3ccccn3)CC2)c1OC (stereo not drawn)	10
O=C1Nc2ccc([N+](=O)[O-])cc2/C1=N/NC(=O)c1ccc(C(=O)N/N=C2\C(=O)Nc3ccc([N+](=O)[O-])cc32)cc1	10
CCOc1ccc(/N=C\c2ccc(OCC)c(OCC)c2)cc1	0
Nc1c(/N=N/c2ccc(-c3ccc(/N=N/c4ccc(O)cc4)cc3)cc2)c(S(=O)(=O)O)cc2cc(S(=O)(=O)O)c(/N=N/c3ccccc3)c(O)c12	0
CC(=O)N1CCN(C(=O)c2ccc3nc(C)c(N(C)C(=O)CCc4ccccc4)n3c2)CC1	0
COc1cc(C2OCC3(CCCC4(COC(c5ccc(O)c(OC)c5)OC4)C3=O)CO2)ccc1O (stereo not drawn)	30
CCc1ccc2c(c1)c1nnc(SCC(=O)NCc3ccc4c(c3)OCO4)nc1n2C	10
CCCCCCOc1ccc(/C=N/c2ccc(-c3ccc(/N=C/c4ccc(OCCCCCC)c(OC)c4)cc3)cc2)cc1CC	79.1
CC1CCC(C(C)C)C(OCc2nc3cc(C(=O)NCCOCCO)ccc3n2Cc2ccco2)C1 (stereo not drawn)	10
O=C(N/N=C/c1cc(Br)c(O)c(O)c1Br)/C(=C\c1ccc([N+](=O)[O-])cc1)NC(=O)c1ccccc1	20
CC(=O)C1=C(C)NC(SCC(=O)Nc2ccc(Br)cc2)=C(C#N)C1c1ccc(O)cc1 (stereo not drawn)	30
CCOC(=O)C(=O)NCC1CCC(c2cc3n(n2)CCN3S(=O)(=O)c2cccc(Cl)c2)CC1 (stereo not drawn)	20
CC(C)c1ccc(S(=O)(=O)N2CCn3nc(C4CCC(CNC(=O)c5ccco5)CC4)cc32)cc1 (stereo not drawn)	20
COc1cc(/C=N/NC(=O)c2ccc(NC(=O)c3ccc(F)cc3)cc2)cc(Cl)c1O	10

The remaining lines, values ahead:

inhibition [%]	SMILES
30	CCCCOc1ccc(-c2nc3cc(C(=O)NCc4ccc(C(F)(F)F)cc4)ccc3n2CCc2ccc(OC)c(OC)c2)cc1
10	CCOc1cc(/C=C2/NC(=O)N(Cc3ccccc3F)C2=O)cc(Br)c1OCc1ccc2ccccc2c1
20	COc1ccc(-c2cc(C(=O)NCCC(=O)NCc3ccccc3OC)c3ccccc3n2)cc1
10	CCOc1cc(/C=C2/S/C(=N/c3ccccc3)N(c3ccccc3)C2=O)ccc1OCc1ccccc1
10	CC(CNC(=O)c1cc(-c2ccccc2)nc2ccccc12)C(=O)NCCNc1ccccc1 (stereo not drawn)
10	CC(CNC(=O)c1cc(-c2ccoc2)nc2ccccc12)C(=O)NCCNc1ccccc1 (stereo not drawn)
10	O=C1/C(=C\c2cccc(OCc3ccccc3F)c2)SC(=S)N1Cc1ccccc1
30	CCN(C(=O)c1cccc(/C=C2\SC(=S)N([C@H](Cc3ccccc3)C(=O)O)C2=O)c1)c1ccccc1
10	CC1CN(c2ccc(C(=O)NC(Cc3ccc(O)cc3)C(N)=O)cn2)CCN1C(=O)C(N)Cc1ccccc1 (stereo not drawn)
0	CCc1nc2ccc(C(=O)NCCc3c[nH]c4ccccc34)cn2c1N(C)C(=O)C1CCCCC1
10	N#CC1=C(SCC(=O)N(c2ccccc2)c2ccccc2)NC(=O)CC1c1cc(Br)c(O)c(Br)c1 (stereo not drawn)
10	O=C(NC(S)Nc1ccc2oc(-c3ccc(-c4ccccc4)cc3)nc2c1)c1ccc([N+](=O)[O-])cc1 (stereo not drawn)
